Laboratory results as given in patent US7528138B2, “Pyrazolo[1,5-a]pyrimidines useful as inhibitors of protein kinases” (Vertex Pharmaceuticals Incorporated, priority 2004, dated 2009).

Columns and labels:
[1] = target: T1, JAK3 (Homo sapiens, UniProt P52333); test: JAK3 Inhibition Assay, 33P incorporation; assay type: biochemical; settings: enzyme inhibition data (Ki), Table 11
T1 sequence (P52333 1-1124): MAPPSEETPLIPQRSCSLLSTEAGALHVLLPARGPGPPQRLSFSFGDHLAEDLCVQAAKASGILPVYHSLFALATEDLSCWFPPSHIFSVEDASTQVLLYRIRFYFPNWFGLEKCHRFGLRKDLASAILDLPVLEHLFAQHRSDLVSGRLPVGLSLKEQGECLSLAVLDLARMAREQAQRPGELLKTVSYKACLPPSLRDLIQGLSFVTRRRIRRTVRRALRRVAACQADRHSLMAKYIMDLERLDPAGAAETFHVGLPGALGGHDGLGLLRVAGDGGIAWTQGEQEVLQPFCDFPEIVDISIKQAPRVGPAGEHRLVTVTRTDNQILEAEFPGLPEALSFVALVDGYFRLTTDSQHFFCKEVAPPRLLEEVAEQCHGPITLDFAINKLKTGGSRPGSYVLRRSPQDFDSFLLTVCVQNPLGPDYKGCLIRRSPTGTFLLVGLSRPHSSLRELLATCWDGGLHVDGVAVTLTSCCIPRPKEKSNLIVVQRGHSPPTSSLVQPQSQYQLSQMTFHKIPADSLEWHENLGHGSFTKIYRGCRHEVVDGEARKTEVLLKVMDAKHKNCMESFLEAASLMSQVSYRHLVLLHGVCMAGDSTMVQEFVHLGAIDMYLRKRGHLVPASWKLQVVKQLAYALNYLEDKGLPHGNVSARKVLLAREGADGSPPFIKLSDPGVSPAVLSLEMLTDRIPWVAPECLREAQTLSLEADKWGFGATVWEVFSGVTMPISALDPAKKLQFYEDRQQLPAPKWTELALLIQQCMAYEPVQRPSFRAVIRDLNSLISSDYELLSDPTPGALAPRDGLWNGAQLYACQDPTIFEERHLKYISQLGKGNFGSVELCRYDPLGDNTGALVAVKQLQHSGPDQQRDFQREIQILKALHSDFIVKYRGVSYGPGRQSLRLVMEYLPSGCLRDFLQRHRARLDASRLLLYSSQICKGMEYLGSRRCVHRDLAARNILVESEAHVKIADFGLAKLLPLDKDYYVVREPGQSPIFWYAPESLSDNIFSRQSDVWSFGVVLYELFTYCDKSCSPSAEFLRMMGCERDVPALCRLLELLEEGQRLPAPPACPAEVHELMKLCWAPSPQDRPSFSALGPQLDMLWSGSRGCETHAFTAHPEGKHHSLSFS
Outline: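 33P incorporation into 1 μM poly(Glu)4Tyr was counted after TCA stop and glass fiber filtration. The 20 min reaction ran at 25 °C with 1 nM JAK3 and 5 μM ATP (200 uCi/μmole). Buffer was 100 mM HEPES pH 7.4, 10 mM MgCl2, 25 mM NaCl, 1 mM DTT, 0.01% BSA.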

[2] = target: T2, Aurora-2 (Homo sapiens, UniProt O14965); test: Aurora-A (Aurora-2) Inhibition Assay, coupled enzyme assay; assay type: biochemical; settings: enzyme inhibition data (Ki), Table 11; read-out: AurA Ki
T2 sequence (O14965 1-403): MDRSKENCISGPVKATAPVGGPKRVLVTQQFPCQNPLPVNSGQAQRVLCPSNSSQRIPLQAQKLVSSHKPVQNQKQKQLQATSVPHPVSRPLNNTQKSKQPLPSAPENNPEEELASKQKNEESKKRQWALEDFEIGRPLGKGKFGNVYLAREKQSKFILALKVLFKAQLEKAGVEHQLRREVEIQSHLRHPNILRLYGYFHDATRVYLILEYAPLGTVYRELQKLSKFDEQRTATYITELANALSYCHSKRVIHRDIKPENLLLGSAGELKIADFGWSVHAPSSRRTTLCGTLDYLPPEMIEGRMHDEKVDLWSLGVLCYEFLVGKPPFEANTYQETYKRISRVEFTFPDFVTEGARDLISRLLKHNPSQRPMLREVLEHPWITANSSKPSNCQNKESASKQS
Outline: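 Coupled pyruvate kinase/lactate dehydrogenase assay following NADH, pH 7.5 Hepes, 40 nM Aurora-2, 400 μM ATP and 570 μM Kemptide at 30 °C. Compound (top final typically 7.5 μM) preincubated 10 min; initial rates over 10 min; IC50 and Ki by non-linear regression.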

SMILES | Ki [1] [nM] | Ki [2] [nM]
CCN1CCN(C(=O)c2ccc(-c3cnc4c(-c5ccccn5)c(N)nn4c3)nc2)C(O)C1 (stereo not shown) [Compound V-78] | 500 to 5000 | < 500
CCOC(=O)N1CCN(C(=O)c2ccc(-c3cnc4c(-c5ccccn5)c(N)nn4c3)nc2)CC1 [Compound V-76] | 500 to 5000 | < 500
COc1ccncc1-c1cnc2c(-c3ccccn3)c(N)nn2c1 [Compound V-22] | > 5000 | 500 to 5000
Nc1nn2cc(Cl)cnc2c1-c1ccccn1 [Compound V-280] | > 5000 | < 500
Cc1cnc2c(-c3cc(N[C@H](C)CO)ncn3)c(N)nn2c1 [Compound V-293] | 500 to 5000 | 500 to 5000
CN(C)CCNC(=O)c1cccc(-c2cnc3c(-c4ccccn4)c(N)nn3c2)c1 [Compound V-54] | > 5000 | 500 to 5000
CC(C)N(C)C(=O)c1ccc(-c2cnc3c(-c4ccccn4)c(N)nn3c2)nc1 [Compound V-67] | 500 to 5000 | < 500
C#CCN(C)C(=O)c1ccc(-c2cnc3c(-c4ccccn4)c(N)nn3c2)nc1 [Compound V-72] | 500 to 5000 | < 500
Cc1cnc2c(-c3cc(NC4CCN(Cc5ccccc5)CC4)ncn3)c(N)nn2c1 [Compound V-285] | 500 to 5000 | 500 to 5000
Cc1cnc2c(-c3cc(Nc4ccccc4)ncn3)c(N)nn2c1 [Compound V-279] | < 500 | < 500
CCN(CCN)C(=O)c1ccc(-c2cnc3c(-c4ccccn4)c(N)nn3c2)nc1 [Compound V-62] | 500 to 5000 | 500 to 5000
Nc1nn2cc(-c3ccc(C(=O)N4CCC(N)C4)cn3)cnc2c1-c1ccccn1 (stereo not shown) [Compound V-81] | 500 to 5000 | < 500
COCCN1CCN(C(=O)c2ccc(-c3cnc4c(-c5ccccn5)c(N)nn4c3)nc2)CC1 [Compound V-68] | 500 to 5000 | < 500
COc1ccccc1Nc1cc(-c2c(N)nn3cc(C)cnc23)ncn1 [Compound V-274] | 500 to 5000 | 500 to 5000
CC[C@H](C)Nc1cc(-c2c(N)nn3cc(C)cnc23)ncn1 [Compound V-294] | 500 to 5000 | 500 to 5000
CN1CCN(C(=O)c2cccc(-c3cnc4c(-c5ccccn5)c(N)nn4c3)c2)CC1 [Compound V-55] | > 5000 | 500 to 5000
Nc1nn2cc(-c3ccc(C(=O)N4CCC[C@@H]4CO)cn3)cnc2c1-c1ccccn1 [Compound V-93] | 500 to 5000 | < 500
CCCN(CCCN)C(=O)c1ccc(-c2cnc3c(-c4ccccn4)c(N)nn3c2)nc1 [Compound V-85] | 500 to 5000 | 500 to 5000
CN(C)CCNC(=O)c1ccc(-c2cnc3c(-c4ccccn4)c(N)nn3c2)nc1 [Compound V-65] | 500 to 5000 | 500 to 5000
Cc1cnc2c(-c3cc(NC(C)C)ncn3)c(N)nn2c1 [Compound V-273] | 500 to 5000 | 500 to 5000
CC(C)N1CCN(c2ccc(-c3cnc4c(-c5ccccn5)c(N)nn4c3)cc2)CC1 [Compound V-51] | 500 to 5000 | 500 to 5000
COCCN(C)C(=O)c1ccc(-c2cnc3c(-c4ccccn4)c(N)nn3c2)nc1 [Compound V-75] | > 5000 | < 500
CCN1CCN(C(=O)c2ccc(-c3cnc4c(-c5ccccn5)c(N)nn4c3)nc2)CC1 [Compound V-63] | 500 to 5000 | < 500
Nc1nn2cc(N3CCOCC3)cnc2c1-c1ccccn1 [Compound V-57] | > 5000 | 500 to 5000
COC(=O)N1CCN(C(=O)c2ccc(-c3cnc4c(-c5ccccn5)c(N)nn4c3)nc2)CC1 [Compound V-64] | 500 to 5000 | < 500

SMILES | Ki [1] [nM] | Ki [2] [nM]
CCCN(CCO)C(=O)c1ccc(-c2cnc3c(-c4ccccn4)c(N)nn3c2)nc1 [Compound V-92] | 500 to 5000 | < 500
COc1ccc(-c2cnc3c(C#N)c(N)nn3c2)cc1 [Compound V-2] | > 5000 | 500 to 5000
Nc1nn2cc(-c3ccc(C(=O)NCCF)cn3)cnc2c1-c1ccccn1 [Compound V-73] | > 5000 | 500 to 5000
Nc1nn2cc(-c3ccc(C(=O)N4CCC(CCO)CC4)cn3)cnc2c1-c1ccccn1 [Compound V-83] | 500 to 5000 | < 500
Nc1nn2cc(-c3ccc(C(=O)N4CCSCC4)cn3)cnc2c1-c1ccccn1 [Compound V-87] | 500 to 5000 | < 500
Nc1nn2cc(-c3ccc(C(=O)N4CCCC(CO)C4)cn3)cnc2c1-c1ccccn1 (stereo not shown) [Compound V-71] | 500 to 5000 | < 500
Nc1nn2cc(-c3ccc(C(=O)N4CCCCC4CCO)cn3)cnc2c1-c1ccccn1 (stereo not shown) [Compound V-82] | > 5000 | 500 to 5000
Cc1cnc2c(-c3cc(N[C@@H](C)CO)ncn3)c(N)nn2c1 [Compound V-295] | 500 to 5000 | 500 to 5000
CCN(CCCCN)C(=O)c1ccc(-c2cnc3c(-c4ccccn4)c(N)nn3c2)nc1 [Compound V-74] | 500 to 5000 | 500 to 5000
Nc1nn2cc(-c3ccc(C(=O)N4CCC4)cn3)cnc2c1-c1ccccn1 [Compound V-86] | > 5000 | 500 to 5000
Cc1cnc2c(-c3cc(NC4CCCCC4)ncn3)c(N)nn2c1 [Compound V-291] | 500 to 5000 | 500 to 5000
CN1CCCN(C(=O)c2ccc(-c3cnc4c(-c5ccccn5)c(N)nn4c3)nc2)CC1 [Compound V-70] | 500 to 5000 | < 500
Cc1cnc2c(-c3cc(NC4CCN(Cc5ccccc5)C4)ncn3)c(N)nn2c1 (stereo not shown) [Compound V-286] | 500 to 5000 | 500 to 5000
Nc1nn2cc(-c3ccc(C(=O)N4CCC[C@@H](O)C4)cn3)cnc2c1-c1ccccn1 [Compound V-79] | 500 to 5000 | < 500
CCOC(=O)c1c(N)nn2cc(-c3ccc(Cl)cc3)cnc12 [Compound V-24] | > 5000 | 500 to 5000
Cc1cnc2c(-c3cc(N4CCCCC4)ncn3)c(N)nn2c1 [Compound V-276] | 500 to 5000 | 500 to 5000
Cc1cnc2c(-c3cc(NCC4CC4)ncn3)c(N)nn2c1 [Compound V-277] | 500 to 5000 | 500 to 5000
CN(CCN)C(=O)c1ccc(-c2cnc3c(-c4ccccn4)c(N)nn3c2)nc1 [Compound V-94] | > 5000 | 500 to 5000
CCN(CCC#N)C(=O)c1ccc(-c2cnc3c(-c4ccccn4)c(N)nn3c2)nc1 [Compound V-90] | 500 to 5000 | < 500
Cc1cnc2c(-c3cc(NC4CC4)ncn3)c(N)nn2c1 [Compound V-289] | 500 to 5000 | 500 to 5000
CCN(C(=O)c1c(N)nn2cc(-c3ccncn3)cnc12)C(C)C [Compound V-33] | > 5000 | 500 to 5000
CSc1cc(-c2c(N)nn3cc(C)cnc23)ncn1 [Compound V-281] | 500 to 5000 | 500 to 5000
CCN(C)C(=O)c1ccc(-c2cnc3c(-c4ccccn4)c(N)nn3c2)nc1 [Compound V-89] | 500 to 5000 | < 500
Cc1cnc2c(-c3cc(NCC4CCCO4)ncn3)c(N)nn2c1 (stereo not shown) [Compound V-278] | 500 to 5000 | 500 to 5000
Cc1cnc2c(-c3cc(NC4CCC4)ncn3)c(N)nn2c1 [Compound V-290] | 500 to 5000 | 500 to 5000
